Test results from patent publication US9526713B2, “Use of dencichine in preparation of drug for treating thrombocytopenia” (KUNMING SHENGHUO PHARMACEUTICAL (GROUP) CO., LTD., priority 2013, dated 2016).
Where two headings read alike, the source gives them in different places.

Key:
[1] = Organ index of rats suffering thrombopenia induced by carboplatin; format: in vivo, Wistar rats
Description: (§1) 81 rats are prepared and randomly divided into eight groups: • blank control group, • high-dose group A (4 mg/kg, intraperitoneal injection, non modeling), • model group (40 mg/kg, tail vein injection), • interleukin-11 group (260 μg/kg, subcutaneous injection), • high dose group B (4 mg/kg, intraperitoneal injection, modeling), • high dose group (4 mg/kg, intraperitoneal injection), • middle dose group (1 mg/kg, intraperitoneal injection), and • low dose group (0.25 mg/kg, intraperitoneal injection),
(§2) Thereafter, all animals, except for those of blank group and high-dose group A, are individually injected with carboplatin (40 mg/kg) for modeling, and followed by successive administration for 15 days. During these 15 days, the rats of high-dose group A and high dose group B are stopped from administration, and taken blood from the tail on 5th day, 10th day and 15th day after the modeling respectively for detecting hematological indices. After 15th day of modeling, carboplatin (40 mg/kg) is injected again for a second modeling, and all the groups take successive administration according to the foregoing method, once a day for successive 10 days. Before each hematological indices detection, animals are weighed respectively. Taking the tails' blood of rats on 5th day after the second injection of carboplatin for detecting hematological indices, and taking the tails' blood of rats on 10th day after the second injection of carboplatin for detecting the indices of hematology, reticulocytes and coagulation; and weighing animals and killing them; and weighing liver, thymus, spleen and adrenal gland taken from the dead rats, and calculating out viscera indices; further taking out marrow for doing pathological examination.

[2] = test system: ITP model mice; format: in vivo, BALB/C mice
Description: Health BALB/C mice (body weight 18˜22 g) are randomly divided into six groups with 12 mice for each group:
Except the normal group, the mice of the remain five groups are injected with anti-mouse platelet serum (APS) of the guinea pig with a dose of 100 μl/20 g body weight, via intraperitoneal injection, on the 1st, 3rd, 5th, 7th, 9th, 11th and 13th day of the experiment.
The mice of each group are given intragastric administration from the first day. The mice of the dencichine high dose, middle-dose and low dose groups are given intragastric administration at […] respectively. The mice of the prednisone acetate group are given intragastric administration of suspension of prednisone acetate at 5 mg/(kg·d). The mice of other groups are given intragastric administration of same volumetric of normal saline at 0.2 ml/20 g body weight. Intragastric administration for once each day, and continuous administration for 14 days.
20 μl Blood was collected from orbital veins of each mouse of each group before Modeling and on 14th test day respectively, and dropped into anticoagulative tubes, then platelet count was detected by an automated blood analyzers.

[3] = test system: rats with thrombocytopenia caused by carboplatin; assay: Platelet count of rats with thrombocytopenia caused by carboplatin, different prophylactic administration time; format: in vivo, rat
[4] = test system: female mouse; conditions: cited from earlier work
[5] = Body weight of rats suffering thrombopenia induced by carboplatin; format: in vivo, Wistar rats
Description: as §1
wherein, the Model group has 11 rats, and the other groups has 10 rats respectively. Before the experiment, the animals are asked to adapt the environment for 2 days, and then blood is taken from their tails for detecting hematological index.
After administration for 10 days, blood is taken from tails of rats from blank control group, high-dose group A, and positive drug group respectively for detecting hematological index.
as §2

[6] = high dose group A, 4 mg/kg i.p., non modeling
[7] = high dose group B, 4 mg/kg i.p., prophylactic, modeling
[8] = low dose group, 0.25 mg/kg i.p.
[9] = middle dose group, 1 mg/kg i.p.

In the case of `N[C@@H](CNC(=O)C(=O)O)C(=O)O` [Dencichine, β-N-oxalyl-L-α, β-diaminopropionic acid], the “organ index, Adrenal gland” value [1, 6] was 0.03 ± 0.004 g/100 g body weight, the “organ index, Liver” value [1, 6] was 3.33 ± 0.22 g/100 g body weight and the “organ index, Spleen” value [1, 6] was 0.28 ± 0.05 g/100 g body weight. For the same molecule, the “organ index, Thymus gland” value [1, 6] was 0.18 ± 0.08 g/100 g body weight, the “organ index, Adrenal gland” value [1, 7] was 0.03 ± 0.01 g/100 g body weight and the “organ index, Liver” value [1, 7] was 3.70 ± 0.31 g/100 g body weight. The “organ index, Spleen” value [1, 7] was 0.36 ± 0.10 g/100 g body weight, the “organ index, Thymus gland” value [1, 7] was 0.10 ± 0.03 g/100 g body weight and the “organ index, Adrenal gland” value ([1]; high dose group, 4 mg/kg i.p.) was 0.03 ± 0.004 g/100 g body weight. For the same molecule, the “organ index, Liver” value ([1]; high dose group, 4 mg/kg i.p.) was 3.61 ± 0.46 g/100 g body weight, the “organ index, Spleen” value ([1]; high dose group, 4 mg/kg i.p.) was 0.32 ± 0.11 g/100 g body weight and the “organ index, Thymus gland” value ([1]; high dose group, 4 mg/kg i.p.) was 0.11 ± 0.02 g/100 g body weight. The “organ index, Adrenal gland” value [1, 8] was 0.03 ± 0.004 g/100 g body weight, the “organ index, Liver” value [1, 8] was 3.71 ± 0.21 g/100 g body weight and the “organ index, Spleen” value [1, 8] was 0.35 ± 0.06 g/100 g body weight. The “organ index, Thymus gland” value [1, 8] was 0.11 ± 0.02 g/100 g body weight, the “organ index, Adrenal gland” value [1, 9] was 0.03 ± 0.01 g/100 g body weight and the “organ index, Liver” value [1, 9] was 3.50 ± 0.52 g/100 g body weight. The “organ index, Spleen” value [1, 9] was 0.32 ± 0.10 g/100 g body weight, the “organ index, Thymus gland” value [1, 9] was 0.09 ± 0.04 g/100 g body weight and the platelet count ([2]; high dose 6 mg/kg intragastric, Before Modeling) was 751.4 ± 114.3 ×10^9/L. For the same molecule, the platelet count ([2]; high dose 6 mg/kg intragastric, Day 14) was 542.1 ± 95.4 ×10^9/L, the platelet count ([2]; low dose 1.5 mg/kg intragastric, Before Modeling) was 745.1 ± 139.6 ×10^9/L and the platelet count ([2]; low dose 1.5 mg/kg intragastric, Day 14) was 428.2 ± 75.1 ×10^9/L. For the same molecule, the platelet count ([2]; middle dose 3 mg/kg intragastric, Before Modeling) was 749.2 ± 147.5 ×10^9/L, the platelet count ([2]; middle dose 3 mg/kg intragastric, Day 14) was 484.8 ± 78.4 ×10^9/L and the “platelet count compared with that of model group” value ([3]; prophylactic administration for 3 days) was “no significant difference”. The platelet count ([3]; prophylactic administration for 3 days, after prophylactic administration) was 656.3 ± 67.35 ×10^9/L, the platelet count ([3]; prophylactic administration for 3 days, initial value) was 717.5 ± 276.94 ×10^9/L and the platelet count ([3]; prophylactic administration for 3 days, injection of carboplatin for 10 days) was 110.2 ± 40.43 ×10^9/L. For the same molecule, the “platelet count compared with that of model group” value ([3]; prophylactic administration for 5 days and 7 days) was “increase the platelet count”, the platelet count ([3]; prophylactic administration for 5 days, after prophylactic administration) was 773.2 ± 142.02 ×10^9/L and the platelet count ([3]; prophylactic administration for 5 days, initial value) was 736.2 ± 182.37 ×10^9/L. The platelet count ([3]; prophylactic administration for 5 days, injection of carboplatin for 10 days) was 176.2 ± 28.34 ×10^9/L, the platelet count ([3]; prophylactic administration for 7 days, after prophylactic administration) was 772.8 ± 70.63 ×10^9/L and the platelet count ([3]; prophylactic administration for 7 days, initial value) was 743.7 ± 226.92 ×10^9/L. The platelet count ([3]; prophylactic administration for 7 days, injection of carboplatin for 10 days) was 166.2 ± 18.20 ×10^9/L, the “increase of the platelet count” value ([4]; 1 mg in 0.5 ml Ringer-Locke solution, injected into abdominal cavity of a female mouse) was 30% and the “effect on the hemostasis and increase of platelet count” value ([4]; Zhao Guoqiang et al., 1984) was “significant effect”. For the same molecule, the “body weight gain compared with control group” value [5, 6] was “slower body weight gain”, the body weight ([5]; high dose group A, 4 mg/kg i.p., non modeling, 5th day after first injection of carboplatin) was 303.5 ± 17.17 g and the body weight ([5]; high dose group A, 4 mg/kg i.p., non modeling, 5th day after second injection of carboplatin) was 360.7 ± 24.05 g. It also gave a body weight ([5]; high dose group A, 4 mg/kg i.p., non modeling, 10th day after first injection of carboplatin) of 315.0 ± 17.29 g, a body weight ([5]; high dose group A, 4 mg/kg i.p., non modeling, 10th day after second injection of carboplatin) of 362.8 ± 28.63 g and a body weight ([5]; high dose group A, 4 mg/kg i.p., non modeling, 15th day after first injection of carboplatin) of 342.5 ± 19.93 g. For the same molecule, the body weight ([5]; high dose group A, 4 mg/kg i.p., non modeling, before experiment) was 187.5 ± 7.37 g, the body weight ([5]; high dose group A, 4 mg/kg i.p., non modeling, prophylactic administration for 10 days) was 281.1 ± 13.19 g and the body weight ([5]; high dose group B, 4 mg/kg i.p., prophylactic, modeling, 5th day after first injection of carboplatin) was 289.9 ± 18.16 g. For the same molecule, the body weight ([5]; high dose group B, 4 mg/kg i.p., prophylactic, modeling, 5th day after second injection of carboplatin) was 317.8 ± 25.87 g, the body weight ([5]; high dose group B, 4 mg/kg i.p., prophylactic, modeling, 10th day after first injection of carboplatin) was 308.2 ± 16.69 g and the body weight ([5]; high dose group B, 4 mg/kg i.p., prophylactic, modeling, 10th day after second injection of carboplatin) was 314.7 ± 28.71 g. It also gave a body weight ([5]; high dose group B, 4 mg/kg i.p., prophylactic, modeling, 15th day after first injection of carboplatin) of 318.7 ± 17.76 g, a body weight ([5]; high dose group B, 4 mg/kg i.p., prophylactic, modeling, before experiment) of 187.6 ± 9.46 g and a body weight ([5]; high dose group B, 4 mg/kg i.p., prophylactic, modeling, prophylactic administration for 10 days) of 284.7 ± 15.43 g. For the same molecule, the body weight ([5]; high dose group, 4 mg/kg i.p., 5th day after first injection of carboplatin) was 298.8 ± 24.10 g, the body weight ([5]; high dose group, 4 mg/kg i.p., 5th day after second injection of carboplatin) was 324.6 ± 23.20 g and the body weight ([5]; high dose group, 4 mg/kg i.p., 10th day after first injection of carboplatin) was 314.0 ± 27.14 g. The body weight ([5]; high dose group, 4 mg/kg i.p., 10th day after second injection of carboplatin) was 316.6 ± 15.35 g, the body weight ([5]; high dose group, 4 mg/kg i.p., 15th day after first injection of carboplatin) was 341.8 ± 32.01 g and the body weight ([5]; high dose group, 4 mg/kg i.p., before experiment) was 188.8 ± 9.64 g. It also gave a body weight ([5]; high dose group, 4 mg/kg i.p., prophylactic administration for 10 days) of 285.8 ± 20.94 g, a body weight ([5]; low dose group, 0.25 mg/kg i.p., 5th day after first injection of carboplatin) of 302.6 g and a body weight ([5]; low dose group, 0.25 mg/kg i.p., 5th day after second injection of carboplatin) of 325.9 g. For the same molecule, the body weight ([5]; low dose group, 0.25 mg/kg i.p., 10th day after first injection of carboplatin) was 317.2 g, the body weight ([5]; low dose group, 0.25 mg/kg i.p., 10th day after second injection of carboplatin) was 325.2 g and the body weight ([5]; low dose group, 0.25 mg/kg i.p., 15th day after first injection of carboplatin) was 343.2 g. The body weight ([5]; low dose group, 0.25 mg/kg i.p., before experiment) was 189.6 g, the body weight ([5]; low dose group, 0.25 mg/kg i.p., prophylactic administration for 10 days) was 288.7 g and the body weight ([5]; middle dose group, 1 mg/kg i.p., 5th day after first injection of carboplatin) was 291.5 ± 26.18 g. The body weight ([5]; middle dose group, 1 mg/kg i.p., 5th day after second injection of carboplatin) was 328.0 ± 33.38 g, the body weight ([5]; middle dose group, 1 mg/kg i.p., 10th day after first injection of carboplatin) was 315.0 ± 19.28 g and the body weight ([5]; middle dose group, 1 mg/kg i.p., 10th day after second injection of carboplatin) was 334.0 ± 28.15 g. It also gave a body weight ([5]; middle dose group, 1 mg/kg i.p., 15th day after first injection of carboplatin) of 329.8 ± 23.77 g, a body weight ([5]; middle dose group, 1 mg/kg i.p., before experiment) of 186.2 ± 11.31 g and a body weight ([5]; middle dose group, 1 mg/kg i.p., prophylactic administration for 10 days) of 282.8 ± 17.29 g.
